Patent publication US20110110886A1, “SMALL MOLECULE INHIBITORS OF AUTOTAXIN AND METHODS OF USE” (Yale University, priority 2008, published 2011)

System: human melanoma cell line A2058
Test: Melanoma invasion and metastasis in vivo, nude mice with subcutaneous A2058
Details: oral gavage of bithionol-cyclodextrin suspension
Description: (§1) Nude mice were inoculated with human melanoma cell line A2058 subcutaneously in the right flank and observed until the tumor was palpable (about 5-8 days). The mice were then treated with oral gavage of a bithionol-cyclodextrin suspension (A-D) or a cyclodextrin suspension alone (E-H). […] Two of the untreated mice developed large tumors in the right hindquarter (cyan arrow, E) that grossly invaded the right gluteous maximus and could not be dissected without amputation (E&F). […] Of the remaining untreated mice, one developed a modest sized tumor with microscopic evidence of invasion, and a one developed a tumor without gross or microscopic evidence of invasive tumor.
as §1, with “The present invention was also tested in vivo. Nude” for “Nude”

Compound: Oc1c(Cl)cc(Cl)cc1Sc1cc(Cl)cc(Cl)c1O [Bithionol]
- microscopic appearance of the tumors: self-contained balls of tumor cells (C) with a pushing border
- gross evidence of metastatic melanoma upon necropsy (5 mice): lacked gross evidence of metastatic melanoma
